Assay results from ChEMBL document CHEMBL4507318, “Data for DCP probe BAY-985” (2021).

Key:
[1] = test system: Tyrosine-protein kinase ABL1 (Homo sapiens), P00519 [F317I]
[2] = molecular target: Tyrosine-protein kinase ABL1 (Homo sapiens) (UniProt P00519)
[3] = molecular target: Atypical kinase COQ8B, mitochondrial (Homo sapiens) (UniProt Q96D53)
[4] = molecular target: BMP-2-inducible protein kinase (Homo sapiens) (UniProt Q9NSY1)
[5] = molecular target: Serine/threonine-protein kinase B-raf (Homo sapiens) (UniProt P15056)
[6] = molecular target: Mitotic checkpoint serine/threonine-protein kinase BUB1 (Homo sapiens) (UniProt O43683)
[7] = molecular target: Calcium/calmodulin-dependent protein kinase type II subunit alpha (Homo sapiens) (UniProt Q9UQM7)
[8] = molecular target: Calcium/calmodulin-dependent protein kinase type II subunit beta (Homo sapiens) (UniProt Q13554)
[9] = molecular target: Serine/threonine-protein kinase Chk2 (Homo sapiens) (UniProt O96017)
[10] = molecular target: Serine/threonine-protein kinase DCLK1 (Homo sapiens) (UniProt O15075)
Sequence of Serine/threonine-protein kinase DCLK1 (Homo sapiens) (O15075 whole entry): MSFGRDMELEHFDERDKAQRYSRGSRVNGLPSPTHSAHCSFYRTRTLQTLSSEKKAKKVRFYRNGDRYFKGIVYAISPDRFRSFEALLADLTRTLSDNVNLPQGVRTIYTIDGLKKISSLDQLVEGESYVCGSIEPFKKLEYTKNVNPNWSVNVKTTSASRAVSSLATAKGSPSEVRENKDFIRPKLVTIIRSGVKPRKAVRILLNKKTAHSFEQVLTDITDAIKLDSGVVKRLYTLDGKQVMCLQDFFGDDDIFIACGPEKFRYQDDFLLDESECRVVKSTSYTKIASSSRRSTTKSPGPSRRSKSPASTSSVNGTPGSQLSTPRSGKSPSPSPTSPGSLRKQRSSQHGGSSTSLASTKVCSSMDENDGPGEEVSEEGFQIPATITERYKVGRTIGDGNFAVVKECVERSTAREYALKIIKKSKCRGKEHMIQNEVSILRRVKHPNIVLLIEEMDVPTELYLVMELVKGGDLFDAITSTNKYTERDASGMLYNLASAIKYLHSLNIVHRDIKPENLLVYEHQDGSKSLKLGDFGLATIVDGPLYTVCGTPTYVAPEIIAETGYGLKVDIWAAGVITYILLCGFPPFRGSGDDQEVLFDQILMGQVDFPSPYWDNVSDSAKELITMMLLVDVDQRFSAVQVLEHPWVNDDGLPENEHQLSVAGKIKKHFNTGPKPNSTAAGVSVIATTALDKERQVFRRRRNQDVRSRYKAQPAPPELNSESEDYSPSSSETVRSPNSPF

[11] = molecular target: Dual specificity tyrosine-phosphorylation-regulated kinase 1B (Homo sapiens) (UniProt Q9Y463)
[12] = molecular target: Receptor tyrosine-protein kinase erbB-4 (Homo sapiens) (UniProt Q15303)
[13] = molecular target: Mitogen-activated protein kinase 1 (Homo sapiens) (UniProt P28482)
[14] = test system: Receptor-type tyrosine-protein kinase FLT3 (Homo sapiens), P36888 [D835V]
[15] = test system: eIF-2-alpha kinase GCN2 (Homo sapiens), Q9P2K8 [S808G]
Sequence of eIF-2-alpha kinase GCN2 (Homo sapiens), Q9P2K8 [S808G] (Q9P2K8 whole entry S808G): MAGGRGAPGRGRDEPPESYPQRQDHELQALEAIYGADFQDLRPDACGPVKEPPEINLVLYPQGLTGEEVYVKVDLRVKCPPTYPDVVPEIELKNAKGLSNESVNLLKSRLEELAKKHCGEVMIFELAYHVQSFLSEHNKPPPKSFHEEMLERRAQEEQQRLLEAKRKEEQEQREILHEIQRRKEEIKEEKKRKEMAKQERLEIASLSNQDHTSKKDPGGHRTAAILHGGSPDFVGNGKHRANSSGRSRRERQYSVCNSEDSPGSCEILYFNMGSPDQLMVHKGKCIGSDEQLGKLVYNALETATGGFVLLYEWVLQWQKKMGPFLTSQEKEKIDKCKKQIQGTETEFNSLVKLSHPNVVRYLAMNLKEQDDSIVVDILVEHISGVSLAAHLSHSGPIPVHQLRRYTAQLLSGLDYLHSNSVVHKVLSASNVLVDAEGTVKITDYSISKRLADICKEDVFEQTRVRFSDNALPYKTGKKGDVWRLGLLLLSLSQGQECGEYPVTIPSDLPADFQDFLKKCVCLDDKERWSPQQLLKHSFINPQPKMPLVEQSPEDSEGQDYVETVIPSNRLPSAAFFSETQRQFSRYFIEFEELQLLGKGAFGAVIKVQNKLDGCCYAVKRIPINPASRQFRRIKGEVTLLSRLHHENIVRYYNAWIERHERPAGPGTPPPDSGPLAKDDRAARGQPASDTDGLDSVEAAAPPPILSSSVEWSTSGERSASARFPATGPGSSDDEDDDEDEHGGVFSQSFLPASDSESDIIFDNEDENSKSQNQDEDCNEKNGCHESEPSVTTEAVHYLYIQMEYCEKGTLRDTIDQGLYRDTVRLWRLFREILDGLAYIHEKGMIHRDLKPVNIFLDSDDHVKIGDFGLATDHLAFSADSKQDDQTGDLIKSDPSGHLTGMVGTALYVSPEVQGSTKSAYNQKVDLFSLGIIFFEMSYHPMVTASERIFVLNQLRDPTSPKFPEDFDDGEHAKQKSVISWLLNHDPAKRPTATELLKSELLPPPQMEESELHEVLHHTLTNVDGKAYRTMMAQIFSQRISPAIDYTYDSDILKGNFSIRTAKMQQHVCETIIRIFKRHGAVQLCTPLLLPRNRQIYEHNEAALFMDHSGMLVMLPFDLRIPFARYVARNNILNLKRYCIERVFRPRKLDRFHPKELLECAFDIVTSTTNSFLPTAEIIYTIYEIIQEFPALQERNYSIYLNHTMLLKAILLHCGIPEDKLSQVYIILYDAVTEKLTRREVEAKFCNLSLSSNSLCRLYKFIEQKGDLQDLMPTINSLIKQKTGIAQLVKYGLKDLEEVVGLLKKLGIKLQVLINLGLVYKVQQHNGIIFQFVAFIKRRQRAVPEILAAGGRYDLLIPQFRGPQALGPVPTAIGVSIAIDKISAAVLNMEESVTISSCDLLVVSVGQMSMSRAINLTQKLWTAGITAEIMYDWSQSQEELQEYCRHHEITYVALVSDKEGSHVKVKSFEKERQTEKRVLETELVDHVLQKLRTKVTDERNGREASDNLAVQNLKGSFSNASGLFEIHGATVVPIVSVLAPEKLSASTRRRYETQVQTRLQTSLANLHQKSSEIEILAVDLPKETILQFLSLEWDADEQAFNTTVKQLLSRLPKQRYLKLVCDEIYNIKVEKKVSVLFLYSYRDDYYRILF

[16] = molecular target: Interleukin-1 receptor-associated kinase 3 (Homo sapiens) (UniProt Q9Y616)
[17] = molecular target: Mitogen-activated protein kinase 10 (Homo sapiens) (UniProt P53779)
[18] = test system: Mast/stem cell growth factor receptor Kit (Homo sapiens), P10721 [V559D,T670I]
Sequence of Mast/stem cell growth factor receptor Kit (Homo sapiens), P10721 [V559D,T670I] (P10721 whole entry V559D/T670I): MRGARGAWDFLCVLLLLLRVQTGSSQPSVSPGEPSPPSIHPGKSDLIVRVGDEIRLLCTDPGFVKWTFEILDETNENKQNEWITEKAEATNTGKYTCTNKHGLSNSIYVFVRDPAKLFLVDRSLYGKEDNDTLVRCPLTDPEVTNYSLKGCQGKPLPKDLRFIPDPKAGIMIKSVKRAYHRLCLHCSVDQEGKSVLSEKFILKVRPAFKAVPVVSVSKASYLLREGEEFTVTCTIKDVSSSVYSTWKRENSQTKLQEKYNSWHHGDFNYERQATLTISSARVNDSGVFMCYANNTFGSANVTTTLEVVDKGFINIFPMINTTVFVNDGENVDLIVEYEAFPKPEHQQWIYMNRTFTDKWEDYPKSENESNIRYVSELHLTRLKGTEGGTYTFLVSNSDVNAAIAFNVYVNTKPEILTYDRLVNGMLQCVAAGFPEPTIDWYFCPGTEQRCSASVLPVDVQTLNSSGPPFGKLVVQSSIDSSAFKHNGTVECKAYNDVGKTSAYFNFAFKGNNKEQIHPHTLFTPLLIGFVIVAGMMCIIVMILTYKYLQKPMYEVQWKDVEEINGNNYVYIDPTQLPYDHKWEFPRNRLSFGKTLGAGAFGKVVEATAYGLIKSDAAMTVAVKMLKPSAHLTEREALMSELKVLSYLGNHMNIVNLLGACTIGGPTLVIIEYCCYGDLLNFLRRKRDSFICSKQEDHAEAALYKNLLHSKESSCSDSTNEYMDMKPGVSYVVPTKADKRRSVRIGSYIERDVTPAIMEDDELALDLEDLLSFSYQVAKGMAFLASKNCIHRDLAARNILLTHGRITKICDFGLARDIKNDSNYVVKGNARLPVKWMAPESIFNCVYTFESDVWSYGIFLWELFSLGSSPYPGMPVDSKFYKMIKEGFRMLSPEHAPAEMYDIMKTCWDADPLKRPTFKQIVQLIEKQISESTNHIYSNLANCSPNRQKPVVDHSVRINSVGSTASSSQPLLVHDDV

[19] = molecular target: Mitogen-activated protein kinase kinase kinase 1 (Homo sapiens) (UniProt Q13233)
[20] = molecular target: Mitogen-activated protein kinase kinase kinase 2 (Homo sapiens) (UniProt Q9Y2U5)
[21] = molecular target: Mitogen-activated protein kinase kinase kinase kinase 5 (Homo sapiens) (UniProt Q9Y4K4)
[22] = molecular target: MAP kinase-activated protein kinase 2 (Homo sapiens) (UniProt P49137)
[23] = molecular target: Serine/threonine-protein kinase MARK1 (Homo sapiens) (UniProt Q9P0L2)
Sequence of Serine/threonine-protein kinase MARK1 (Homo sapiens) (Q9P0L2 whole entry, looked up): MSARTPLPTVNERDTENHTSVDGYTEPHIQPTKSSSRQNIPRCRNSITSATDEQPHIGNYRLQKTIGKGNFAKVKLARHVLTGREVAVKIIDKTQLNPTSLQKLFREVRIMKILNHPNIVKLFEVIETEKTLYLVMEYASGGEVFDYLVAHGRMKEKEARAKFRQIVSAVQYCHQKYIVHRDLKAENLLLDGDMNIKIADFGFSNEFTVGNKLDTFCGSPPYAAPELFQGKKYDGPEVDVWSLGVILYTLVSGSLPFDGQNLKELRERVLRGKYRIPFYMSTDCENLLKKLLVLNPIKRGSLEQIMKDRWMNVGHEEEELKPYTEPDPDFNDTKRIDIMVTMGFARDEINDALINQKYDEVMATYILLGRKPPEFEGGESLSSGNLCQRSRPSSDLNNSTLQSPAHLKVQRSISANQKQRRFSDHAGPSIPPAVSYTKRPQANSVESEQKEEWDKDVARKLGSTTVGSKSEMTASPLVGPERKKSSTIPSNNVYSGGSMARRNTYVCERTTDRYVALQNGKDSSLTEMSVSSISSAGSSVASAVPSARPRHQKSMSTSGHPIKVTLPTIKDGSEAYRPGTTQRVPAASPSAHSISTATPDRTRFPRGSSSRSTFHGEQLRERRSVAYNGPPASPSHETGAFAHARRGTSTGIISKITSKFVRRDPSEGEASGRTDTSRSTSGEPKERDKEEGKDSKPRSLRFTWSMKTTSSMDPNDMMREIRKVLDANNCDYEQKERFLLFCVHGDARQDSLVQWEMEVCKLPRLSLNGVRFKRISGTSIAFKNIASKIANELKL

[24] = molecular target: Serine/threonine-protein kinase MARK2 (Homo sapiens) (UniProt Q7KZI7)
Sequence of Serine/threonine-protein kinase MARK2 (Homo sapiens) (Q7KZI7 whole entry): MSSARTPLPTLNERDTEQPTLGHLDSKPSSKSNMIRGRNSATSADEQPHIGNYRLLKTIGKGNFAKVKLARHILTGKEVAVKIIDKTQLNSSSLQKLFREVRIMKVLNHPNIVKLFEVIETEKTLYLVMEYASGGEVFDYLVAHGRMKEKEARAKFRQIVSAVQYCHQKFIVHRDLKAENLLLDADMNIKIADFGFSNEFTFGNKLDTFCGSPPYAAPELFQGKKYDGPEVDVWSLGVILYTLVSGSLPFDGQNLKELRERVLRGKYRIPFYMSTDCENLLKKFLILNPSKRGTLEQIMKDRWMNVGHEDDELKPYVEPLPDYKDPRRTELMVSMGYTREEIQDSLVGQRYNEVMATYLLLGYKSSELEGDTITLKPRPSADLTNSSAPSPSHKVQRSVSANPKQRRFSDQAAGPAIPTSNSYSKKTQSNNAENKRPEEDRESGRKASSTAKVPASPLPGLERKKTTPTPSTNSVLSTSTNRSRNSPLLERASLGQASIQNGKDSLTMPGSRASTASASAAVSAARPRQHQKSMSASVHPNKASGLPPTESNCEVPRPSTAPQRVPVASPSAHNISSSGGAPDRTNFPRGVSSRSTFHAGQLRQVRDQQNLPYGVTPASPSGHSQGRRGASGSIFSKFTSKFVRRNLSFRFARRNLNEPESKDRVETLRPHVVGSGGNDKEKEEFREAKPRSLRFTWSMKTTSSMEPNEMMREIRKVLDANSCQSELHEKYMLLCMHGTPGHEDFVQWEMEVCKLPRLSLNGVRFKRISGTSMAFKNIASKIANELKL

[25] = molecular target: Dual specificity mitogen-activated protein kinase kinase 6 (Homo sapiens) (UniProt P52564)
[26] = molecular target: Mitogen-activated protein kinase kinase kinase 9 (Homo sapiens) (UniProt P80192)
[27] = molecular target: Serine/threonine-protein kinase 4 (Homo sapiens) (UniProt Q13043)
[28] = molecular target: Myosin-IIIb (Homo sapiens) (UniProt Q8WXR4)
[29] = molecular target: Mitogen-activated protein kinase 12 (Homo sapiens) (UniProt P53778)
[30] = molecular target: Cyclin-dependent kinase 17 (Homo sapiens) (UniProt Q00537)
[31] = molecular target: Phosphatidylinositol 4,5-bisphosphate 3-kinase catalytic subunit alpha isoform (Homo sapiens) (UniProt P42336)
[32] = molecular target: Phosphatidylinositol 4-phosphate 5-kinase type-1 alpha (Homo sapiens) (UniProt Q99755)
[33] = molecular target: Membrane-associated tyrosine- and threonine-specific cdc2-inhibitory kinase (Homo sapiens) (UniProt Q99640)
[34] = molecular target: Protein kinase C delta type (Homo sapiens) (UniProt Q05655)
[35] = molecular target: Serine/threonine-protein kinase RIO1 (Homo sapiens) (UniProt Q9BRS2)
[36] = molecular target: Receptor-interacting serine/threonine-protein kinase 2 (Homo sapiens) (UniProt O43353)
[37] = molecular target: Ribosomal protein S6 kinase alpha-3 (Homo sapiens) (UniProt P51812)
[38] = molecular target: Uncharacterized serine/threonine-protein kinase SBK3 (Homo sapiens) (UniProt P0C264)
[39] = molecular target: Testis-specific serine/threonine-protein kinase 1 (Homo sapiens) (UniProt Q9BXA7)
[40] = molecular target: Serine/threonine-protein kinase VRK2 (Homo sapiens) (UniProt Q86Y07)
[41] = molecular target: Serine/threonine-protein kinase 32C (Homo sapiens) (UniProt Q86UX6)
[42] = molecular target: D(4) dopamine receptor (Homo sapiens) (UniProt P21917); settings: Compound concentration 10.0 uM
[43] = molecular target: Histamine H4 receptor (Homo sapiens) (UniProt Q9H3N8); settings: Compound concentration 10.0 uM
[44] = molecular target: Alpha-1B adrenergic receptor (Homo sapiens) (UniProt P35368); settings: Compound concentration 10.0 uM
[45] = Compound concentration 1000.0 nM
[46] = Compound concentration 100.0 nM

For `CN(C)c1ncnc(-c2ccc3nc(Nc4cc(CN5CCN(C(=O)CC(F)(F)F)CC5)ccn4)[nH]c3c2)c1Cl` [BAY-440], the residual activity [1, 45] was 28%, the residual activity [2, 45] was 51% and the residual activity [3, 45] was 90%. For the same molecule, the residual activity [4, 45] was 100%, the residual activity [5, 45] was 83% and the residual activity [6, 45] was 94%. The residual activity [7, 45] was 100%, the residual activity [8, 45] was 100% and the residual activity [9, 45] was 100%. The residual activity [10, 45] was 92%, the residual activity [11, 45] was 100% and the residual activity [12, 45] was 99%. It also gave a residual activity [13, 45] of 100%, a residual activity [14, 45] of 7% and a residual activity [15, 45] of 100%. The residual activity [16, 45] was 97%, the residual activity [17, 45] was 51% and the residual activity [18, 45] was 100%. The residual activity [19, 45] was 100%, the residual activity [20, 45] was 78% and the residual activity [21, 45] was 100%. The residual activity [22, 45] was 100%, the residual activity [23, 45] was 100% and the residual activity [24, 45] was 68%. The residual activity [25, 45] was 92%, the residual activity [26, 45] was 90% and the residual activity [27, 45] was 95%. It also gave a residual activity [28, 45] of 100%, a residual activity [29, 45] of 68% and a residual activity [30, 45] of 100%. It also gave a residual activity [31, 45] of 100%, a residual activity [32, 45] of 96% and a residual activity [33, 45] of 75%. For the same molecule, the residual activity [34, 45] was 100%, the residual activity [35, 45] was 100% and the residual activity [36, 45] was 37%. For the same molecule, the residual activity [37, 45] was 87%, the residual activity [38, 45] was 100% and the residual activity [39, 45] was 100%. The residual activity [40, 45] was 88%, the residual activity [41, 45] was 100% and the inhibition [42] was 7.18%. It also gave an inhibition [43] of -2.29% and an inhibition [44] of 4.51%.

Work on `C[C@H](c1ccnc(Nc2nc3ccc(-c4cc(N(C)C)ncn4)cc3[nH]2)c1)N1CCN(C(=O)CC(F)(F)F)CC1` [BAY-985] yielded a residual activity [1, 46] of 100%, a residual activity [2, 46] of 85% and a residual activity [3, 46] of 79%. The residual activity [4, 46] was 100%, the residual activity [5, 46] was 100% and the residual activity [6, 46] was 95%. It also gave a residual activity [7, 46] of 99%, a residual activity [8, 46] of 92% and a residual activity [9, 46] of 84%. The residual activity [10, 46] was 96%, the residual activity [11, 46] was 84% and the residual activity [12, 46] was 96%. The residual activity [13, 46] was 78%, the residual activity [14, 46] was 32% and the residual activity [15, 46] was 58%. It also gave a residual activity [16, 46] of 76%, a residual activity [17, 46] of 81% and a residual activity [18, 46] of 99%. The residual activity [19, 46] was 100%, the residual activity [20, 46] was 100% and the residual activity [21, 46] was 96%. For the same molecule, the residual activity [22, 46] was 100%, the residual activity [23, 46] was 100% and the residual activity [24, 46] was 100%. For the same molecule, the residual activity [25, 46] was 96%, the residual activity [26, 46] was 100% and the residual activity [27, 46] was 100%. It also gave a residual activity [28, 46] of 100%, a residual activity [29, 46] of 95% and a residual activity [30, 46] of 100%. It also gave a residual activity [31, 46] of 100%, a residual activity [32, 46] of 100% and a residual activity [33, 46] of 83%. The residual activity [34, 46] was 100%, the residual activity [35, 46] was 100% and the residual activity [36, 46] was 71%. It also gave a residual activity [37, 46] of 100%, a residual activity [38, 46] of 100% and a residual activity [39, 46] of 100%. The residual activity [40, 46] was 94%, the residual activity [41, 46] was 100% and the inhibition [42] was 8.17%. The inhibition [43] was -0.75% and the inhibition [44] was 2.95%.
